Like-named read-outs stand apart in the source and are kept apart here.
Tests used:
[1] = molecular target: T1, cyclin B/CDK1 enzyme (Homo sapiens, UniProt P06493); assay: CDK1 ELISA kinase assay (phospho-Rb ser 795 detection); format: biochemical; details: In Vitro Enzyme Assays, read-out: CDK1 IC50
T1 construct: purchased New England BioLabs; host or cells: Sf9 insect cells, recombinant baculovirus
Summary of the method: (§1)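 ELISA format: plate-bound GST-Rb, 200 μM ATP, Sf9 cyclin/CDK enzyme, 1 h at 30° C; then anti-pRb Ser795 primary overnight at 4° C, HRP secondary, TMB. IC50 after no-substrate background subtraction.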

[2] = molecular target: T2, cyclin E/CDK2 enzyme (Homo sapiens, UniProt P24941); assay: CDK2 ELISA kinase assay (phospho-Rb ser 795 detection); format: biochemical; details: In Vitro Enzyme Assays, read-out: CDK2 IC50
T2 construct: made in house; host or cells: Sf9 insect cells, recombinant baculovirus
Summary of the method: as §1

[3] = test system: MCF-7; assay: Cytotoxicity assay (SRB), MCF-7; format: cell-based; details: Homo sapiens, MCF7, 72 h, MCF-7 cells, SRB, read-out: In Vitro Cellular Activity IC50 MCF-7
Summary of the method: (§2)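 Cells grown in RPMI 1640 with 5% FBS were treated with compound for three days (HCT-116, LoVo, MCF-7) or six days (BT474). Viable cell mass was quantified by sulforhodamine B staining of TCA-fixed protein and read at 540 nm.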

[4] = test system: LoVo; assay: Cytotoxicity assay (SRB), LoVo; format: cell-based; details: Homo sapiens, LoVo, 72 h, LoVo cells, SRB, read-out: In Vitro Cellular Activity IC50 LOVO
Summary of the method: as §2

[5] = test system: HCT-116; assay: Cytotoxicity assay (SRB), HCT-116; format: cell-based; details: Homo sapiens, HCT-116, 72 h, HCT116 cells, SRB, read-out: In Vitro Cellular Activity IC50 HCT116
Summary of the method: as §2

[6] = molecular target: T3, cyclin D1/cdk 4 enzyme (Homo sapiens, UniProt P11802); assay: CDK4 ELISA kinase assay (phospho-Rb ser 795 detection); format: biochemical; details: In Vitro Enzyme Assays, 200 μM ATP, read-out: CDK4 IC50
T3 construct: made in house; host or cells: Sf9 insect cells, recombinant baculovirus
Summary of the method: as §1

[7] = test system: BT474; assay: Cytotoxicity assay (SRB), BT474; format: cell-based
Summary of the method: as §2

[8] = Homo sapiens, BT-474, 144 h, BT474 cells, SRB, 6 days; read-out: In Vitro Cellular Activity IC50 BT474
[9] = Homo sapiens, BT-474, 144 h, BT474 cells, 6 days, SRB; read-out: In Vitro Cellular Activity IC50 BT474

T1 sequence (P06493 whole entry): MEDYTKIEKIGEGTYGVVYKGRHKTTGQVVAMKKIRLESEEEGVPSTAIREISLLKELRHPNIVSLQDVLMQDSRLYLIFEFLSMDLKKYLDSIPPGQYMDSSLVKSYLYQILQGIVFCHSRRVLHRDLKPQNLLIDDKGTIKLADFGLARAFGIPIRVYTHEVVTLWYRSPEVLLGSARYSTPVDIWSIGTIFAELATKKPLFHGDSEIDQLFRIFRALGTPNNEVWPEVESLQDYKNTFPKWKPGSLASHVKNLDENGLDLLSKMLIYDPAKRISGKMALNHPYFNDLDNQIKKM
T1 sequence (P14635 whole entry partner): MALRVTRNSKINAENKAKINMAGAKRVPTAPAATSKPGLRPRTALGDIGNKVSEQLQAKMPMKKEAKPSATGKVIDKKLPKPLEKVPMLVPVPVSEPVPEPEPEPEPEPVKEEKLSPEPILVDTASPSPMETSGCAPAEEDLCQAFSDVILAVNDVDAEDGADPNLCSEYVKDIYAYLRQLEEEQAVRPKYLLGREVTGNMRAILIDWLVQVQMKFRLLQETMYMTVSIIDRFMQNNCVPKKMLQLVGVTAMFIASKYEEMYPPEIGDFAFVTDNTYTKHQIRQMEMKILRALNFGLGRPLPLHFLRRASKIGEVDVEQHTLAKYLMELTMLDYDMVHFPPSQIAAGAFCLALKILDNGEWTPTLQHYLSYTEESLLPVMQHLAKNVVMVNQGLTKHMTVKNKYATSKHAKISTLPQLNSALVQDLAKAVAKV
T3 sequence (P11802 whole entry, species assumed): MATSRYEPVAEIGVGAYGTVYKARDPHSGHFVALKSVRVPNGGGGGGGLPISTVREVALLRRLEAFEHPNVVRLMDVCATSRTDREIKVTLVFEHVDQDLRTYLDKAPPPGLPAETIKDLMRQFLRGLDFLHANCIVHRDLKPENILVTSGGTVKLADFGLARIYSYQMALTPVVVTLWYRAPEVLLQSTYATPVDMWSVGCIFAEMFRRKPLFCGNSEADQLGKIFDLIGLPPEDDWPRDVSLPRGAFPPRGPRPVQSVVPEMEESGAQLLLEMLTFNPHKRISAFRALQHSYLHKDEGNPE
T3 sequence (P24385 whole entry partner, species assumed): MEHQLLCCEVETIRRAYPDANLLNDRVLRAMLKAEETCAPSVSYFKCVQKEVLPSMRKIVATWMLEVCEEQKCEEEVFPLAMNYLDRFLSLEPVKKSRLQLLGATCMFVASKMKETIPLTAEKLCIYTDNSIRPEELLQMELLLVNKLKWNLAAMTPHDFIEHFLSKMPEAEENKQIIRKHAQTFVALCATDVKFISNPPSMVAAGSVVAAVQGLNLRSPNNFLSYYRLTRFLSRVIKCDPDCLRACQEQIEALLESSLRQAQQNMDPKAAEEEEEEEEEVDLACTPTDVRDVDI

Row | SMILES | IC50 [1] [µM] | IC50 [2] [µM] | IC50 [6] [µM] | IC50 ([3]; three days) [µM] | IC50 ([4]; three days) [µM] | IC50 ([5]; three days) [µM] | IC50 [7, 8] [µM] | IC50 ([3]; 3 days) [µM] | IC50 ([4]; 3 days) [µM] | IC50 ([5]; 3 days) [µM] | IC50 [7, 9] [µM]
1 | CN1CCC(N2CCN(c3ccc(N/C=C4\C(=O)NC(=O)c5ccc(I)cc54)cc3)CC2)CC1 [Example 387, (4Z)-6-Iodo-4-[({4-[4-(1-methylpiperidin-4-yl)piperazin-1-yl]phenyl}amino)methylene]isoquinoline-1,3(2H,4H)-dione] | > 50 | > 50 | 0.9 | 24 | 33 | 7.7 | 25 | – | – | – | –
2 | CCCN1CCN(c2ccc(N/C=C3\C(=O)NC(=O)c4ccc(I)cc43)cc2)CC1 [Example 388, (4Z)-6-Iodo-4-({[4-(4-propylpiperazin-1-yl)phenyl]amino}methylene)isoquinoline-1,3(2H,4H)-dione] | > 50 | > 50 | 2 | 3.1 | 5.5 | 2.7 | 3.9 | – | – | – | –
3 | O=C1NC(=O)c2ccc(I)cc2/C1=C/Nc1ccc(N2CCN(C3CCC3)CC2)cc1 [Example 392, (4Z)-4-({[4-(4-Cyclobutylpiperazin-1-yl)phenyl]amino}methylene)-6-iodoisoquinoline-1,3(2H,4H)-dione] | > 50 | 33.2 | 0.69 | – | – | – | – | 4.2 | 4.8 | 2.5 | 3.8
4 | CC(CO)N1CCN(c2ccc(N/C=C3\C(=O)NC(=O)c4ccc(I)cc43)cc2)CC1 (stereo not shown) [Example 398, (4Z)-4-[({4-[4-(2-Hydroxy-1-methylethyl)piperazin-1-yl]phenyl}amino)methylene]-6-iodoisoquinoline-1,3(2H,4H)-dione] | 21.6 | > 50 | 0.18 | – | – | – | – | 4.4 | 6.3 | 2.3 | 6.19
5 | COCC(C)N1CCN(c2ccc(N/C=C3\C(=O)NC(=O)c4ccc(I)cc43)cc2)CC1 (stereo not shown) [Example 399, (4Z)-6-Iodo-4-[({4-[4-(2-methoxy-1-methylethyl)piperazin-1-yl]phenyl}amino)methylene]isoquinoline-1,3(2H,4H)-dione] | > 50 | > 50 | 0.34 | – | – | – | – | 5.4 | 7 | 3 | 7.57
6 | CC(CN(C)C)N1CCN(c2ccc(N/C=C3\C(=O)NC(=O)c4ccc(I)cc43)cc2)CC1 (stereo not shown) [Example 400, (4Z)-4-{[(4-{4-[2-(Dimethylamino)-1-methylethyl]piperazin-1-yl}phenyl)amino]methylene}-6-iodoisoquinoline-1,3(2H,4H)-dione] | > 50 | > 50 | 0.34 | – | – | – | – | 8.7 | 8.6 | 2.9 | 9.33
7 | O=C1NC(=O)c2ccc(I)cc2/C1=C/Nc1ccc(N2CCN(CCO)CC2)cc1 [Example 401, (4Z)-4-[({4-[4-(2-Hydroxyethyl)piperazin-1-yl]phenyl}amino)methylene]-6-iodoisoquinoline-1,3(2H,4H)-dione] | 23.1 | > 50 | 0.47 | – | – | – | – | 5.1 | 6.7 | 2.6 | 4.45
8 | O=C1NC(=O)c2ccc(I)cc2/C1=C/Nc1ccc(N2CCNCC2)nc1 [Example 410, (4Z)-6-Iodo-4-{[(6-piperazin-1-ylpyridin-3-yl)amino]methylene}isoquinoline-1,3(2H,4H)-dione] | 25.3 | 17.6 | 2.1 | – | – | – | – | 5.1 | 6.8 | 2.8 | 2.3
9 | CN(C)CC1CCCN1c1ccc(N/C=C2\C(=O)NC(=O)c3ccc(I)cc32)cc1F (stereo not shown) [Example 412, 4-{[4-(2-Dimethylaminomethyl-pyrrolidin-1-yl)-3-fluoro-phenylamino]-methylene}-6-iodo-4H-isoquinoline-1,3-dione] | > 50 | > 50 | 3.3 | – | – | – | – | 4.3 | 3.2 | 1.8 | 5.6

The next lines start with results.

Row | IC50 [1] [µM] | IC50 [2] [µM] | IC50 [6] [µM] | SMILES | IC50 ([3]; three days) [µM] | IC50 ([4]; three days) [µM] | IC50 ([5]; three days) [µM] | IC50 [7, 8] [µM] | IC50 ([3]; 3 days) [µM] | IC50 ([4]; 3 days) [µM] | IC50 ([5]; 3 days) [µM] | IC50 [7, 9] [µM]
10 | > 50 | > 50 | 0.6 | CC(C)N1CCN(c2ccc(N/C=C3\C(=O)NC(=O)c4ccc(I)cc43)cc2)CC1 [Example 386, (4Z)-6-Iodo-4-({[4-(4-isopropylpiperazin-1-yl)phenyl]amino}methylene)isoquinoline-1,3(2H,4H)-dione] | 2.2 | 6.5 | 2.6 | 7 | – | – | – | –
11 | > 50 | > 50 | 1.66 | O=C1NC(=O)c2ccc(I)cc2/C1=C/Nc1ccc(N2CCN(Cc3ccco3)CC2)cc1 [Example 389, (4Z)-4-[({4-[4-(2-Furylmethyl)piperazin-1-yl]phenyl}amino)methylene]-6-iodoisoquinoline-1,3(2H,4H)-dione] | 29 | > 50 | 23 | > 50 | – | – | – | –
12 | 1.45 | 19.3 | 0.88 | O=C1NC(=O)c2ccc(I)cc2/C1=C/Nc1ccc(N2CCN(Cc3ccoc3)CC2)cc1 [Example 390, (4Z)-4-[({4-[4-(3-Furylmethyl)piperazin-1-yl]phenyl}amino)methylene]-6-iodoisoquinoline-1,3(2H,4H)-dione] | – | – | – | – | 22 | > 50 | 17 | > 50
13 | > 50 | > 50 | 0.5 | O=C1NC(=O)c2ccc(I)cc2/C1=C/Nc1ccc(N2CCN(CC3CC3)CC2)cc1 [Example 391, (4Z)-4-[({4-[4-(Cyclopropylmethyl)piperazin-1-yl]phenyl}amino)methylene]-6-iodoisoquinoline-1,3(2H,4H)-dione] | – | – | – | – | 2.6 | 7.3 | 2.4 | 3
14 | > 50 | > 50 | 0.47 | CCN1CCN(c2ccc(N/C=C3\C(=O)NC(=O)c4ccc(I)cc43)cc2)CC1 [Example 393, (4Z)-4-({[4-(4-Ethylpiperazin-1-yl)phenyl]amino}methylene)-6-iodoisoquinoline-1,3(2H,4H)-dione] | – | – | – | – | 2.7 | 6.8 | 2.8 | 5.9
15 | > 50 | > 50 | 0.02 | CN1CCN(c2ccc(N/C=C3\C(=O)NC(=O)c4ccc(-c5ccsc5)cc43)cn2)CC1 [Example 396, (4Z)-4-({[6-(4-Methylpiperazin-1-yl)pyridin-3-yl]amino}methylene)-6-thien-3-ylisoquinoline-1,3(2H,4H)-dione] | – | – | – | – | 3.8 | 3.1 | 1.4 | 2.8
16 | > 50 | > 50 | 0.19 | COC1CCN(Cc2ccc(N/C=C3\C(=O)NC(=O)c4ccc(Br)cc43)cc2)CC1 [Example 397, (4Z)-6-Bromo-4-[({4-[(4-methoxypiperidin-1-yl)methyl]phenyl}amino)methylene]isoquinoline-1,3(2H,4H)-dione] | – | – | – | – | 3.6 | 4.3 | 2.8 | 6.18
17 | > 50 | > 50 | 2.9 | CN(C)C/C=C/C(=O)N1CCCC1c1ccc(N/C=C2\C(=O)NC(=O)c3ccc(I)cc32)cc1 (stereo not shown) [Example 402, 4-({4-[1-(4-Dimethylamino-but-2-enoyl)-pyrrolidin-2-yl]-phenylamino}-methylene)-6-iodo-4H-isoquinoline-1,3-dione] | – | – | – | – | 7.6 | 6 | 4 | 7.1
18 | 25.3 | 14.4 | 0.1 | O=C1NC(=O)c2ccc(-c3ccsc3)cc2/C1=C/Nc1ccc(C2CC=CCN2)cc1 (stereo not shown) [Example 404, 4-{[4-(1,2,3,6-Tetrahydro-pyridin-2-yl)-phenylamino]-methylene}-6-thiophen-3-yl-4H-isoquinoline-1,3-dione] | – | – | – | – | 7.3 | 3.1 | 1.6 | 3.1
19 | > 50 | > 50 | 0.7 | CCOC[C@@H]1CCCN1Cc1ccc(N/C=C2\C(=O)NC(=O)c3ccc(I)cc32)cc1 [Example 411, 4-{[4-(2-Ethoxymethyl-pyrrolidin-1-ylmethyl)-phenylamino]-methylene}-6-iodo-4H-isoquinoline-1,3-dione] | – | – | – | – | 1.6 | 3.5 | 3.8 | 0.45

Source: US7713994B2 (Wyeth LLC, priority 2005, dated 2010)
